# Tests used:
# [1] = equilibrium aqueous solubility by HPLC; assay type: physicochemical; conditions: thermodynamic from solid; water, measured by HPLC; read-out: equilibrium solubility in water
# Procedure: The aqueous solubilities of salts were measured by an equilibrium method in which an amount of the salt was weighed into a 2 ml vial equipped with a magnetic stirrer bar and water added. In cases where complete dissolution was observed, more material was added until the sample was exhausted. The slurry was then stirred for seven days before isolating the solids by centrifuge-filtration. The solids were analysed by XRPD and the filtrates were analysed by HPLC to determine the amount of (+)-alpha-dihydrotetrabenazine salt in solution. The solubilities were calculated against a calibration curve established for a (+)-alpha-dihydrotetrabenazine sample of known concentration.
# [2] = test system: amphetamine-induced rats; assay: amphetamine-induced locomotor activity, open field test; assay type: in vivo, rat
# Procedure: (§1) All animal experiments were carried out according to the National Institute of Health (NIH) guidelines for the care and use of laboratory animals, and approved by the National Animal Experiment Board, Finland. Male CD (Charles River Laboratories, Germany) at weight range of 200-250 g (165-200 g upon arrival) were used for the experiments. Animals were housed at a standard temperature (22±1° C.) and in a light-controlled environment (lights on from 7 am to 8 pm) with ad libitum access to food and water.
# (§2) Locomotor activity of the rats was tested in open field arena. The open field test was performed during the rat light cycle and under a normal lighting evenly distributed to the test chambers. The paths of the rats were recorded by activity monitor (Med. Associates Inc.).
# (§3) Dosing the vehicle, vehicle-amphetamine, (+)-α-DHTBZ or risperidone was done prior to LMA test. The rats were placed in the centre of the arena, and the path was recorded for 60 minutes.
# Animals were grouped as follows: • Group 1: 10 rats treated with Vehicle (t=0 min) and Vehicle (t=30 min) • Group 2: 10 rats treated with Vehicle (t=0 min) and Amphetamine (t=30 min) • Group 3: 10 rats treated with (+)-α-DHTBZ 0.5 mg/kg (t=0 min) and Amphetamine (t=30 min) • Group 4: 10 rats treated with (+)-α-DHTBZ 1 mg/kg (t=0 min) and Amphetamine (t=30 min) • Group 5: 10 rats treated with (+)-α-DHTBZ 1.5 mg/kg (t=0 min) and Amphetamine (t=30 min) • Group 6: 10 rats treated with (+)-α-DHTBZ 2 mg/kg (t=0 min) and Amphetamine (t=30 min) • Group 7: 10 rats treated with risperidone 1 mg/kg (t=0 min) and Amphetamine (t=30 min)
# Rats dosed with either vehicle, (+)-α-DHTBZ 0.5 mg/kg, (+)-α-DHTBZ 1 mg/kg, (+)-α-DHTBZ 1.5 mg/kg, (+)-α-DHTBZ 2 mg/kg or Risperidone 1 mg/kg were subjected to LMA testing first for 30 min and then for 60 minutes after vehicle or amphetamine challenge. Resulting locomotor activity was evaluated in 3 min bins and as a total over the testing period.
# Rats dosed with either vehicle, (+)-α-DHTBZ 0.5 mg/kg, (+)-α-DHTBZ 1 mg/kg, (+)-α-DHTBZ 1.5 mg/kg, (+)-α-DHTBZ 2 mg/kg or Risperidone 1 mg/kg were subjected to LMA testing first for 30 min and then for 60 minutes after vehicle or amphetamine challenge. Resulting stereotypic activity was evaluated in 3 min bins and as a total over the testing period. […]
# [3] = test system: non-amphetamine induced rats; assay: locomotor activity in rats without amphetamine induction, open field test; assay type: in vivo, rat; conditions: Study 3, non-induced rats, 2.5 mg/kg or 5 mg/kg
# Procedure: as §1, §2, §3
# Animals were grouped as follows: • Group 1: 10 rats treated with Vehicle • Group 2: 10 rats treated with (+)-α-DHTBZ 2.5 mg/kg • Group 3: 10 rats treated with (+)-α-DHTBZ 5 mg/kg • Group 4: 10 rats treated with risperidone 1 mg/kg
# [4] = pharmacokinetics after oral administration to male Beagle dogs; assay type: in vivo, Beagle dog
# Procedure: Doses were administered orally, via gavage, at a dose volume of 2.00 mL/kg yielding the target dose level of 1.50 mg/kg. Following dosing, 10 mL of tap water was flushed down the gavage to ensure the entire dose was dispensed. Following dosing over four sessions each with one of the test materials, serial whole blood samples (circa. 1.3 mL) were collected from a jugular vein then placed into K2 EDTA treated tubes pre-dose and then 0.25, 0.50, 1, 2, 3, 4, 6, 12 and 24 hours post dose. Blood samples were placed immediately on a cool-block before being centrifuged within 15 minutes at 3,000×g, 10 minutes, 4° C. and resultant plasma drawn off. […] Doses were administered orally, via gavage, at a dose volume of 2.00 mL/kg yielding the target dose level of 1.50 mg/kg. Following dosing, 10 mL of tap water was flushed down the gavage to ensure the entire dose was dispensed. Following dosing over four sessions each with one of the test materials, serial whole blood samples (circa. 1.3 mL) were collected from a jugular vein then placed into K2 EDTA treated tubes pre-dose and then 0.25, 0.50, 1, 2, 3, 4, 6, 12 and 24 hours post dose. Blood samples were placed immediately on a cool-block before being centrifuged within 15 minutes at 3,000×g, 10 minutes, 4° C. and resultant plasma drawn off.
# [5] = plasma concentrations after oral dosing to human volunteers; assay type: in vivo
# Procedure: (+)-α-Dihydrotetrabenazine in amounts was administered by oral dosing to five human volunteers. In four of the volunteers, blood sample were taken at 30, 60, 120 and 180 minutes after drug administration. Blood samples were not taken from the fifth volunteer. At 60 minutes after drug administration, PET scans were initiated and these were stopped at 120 minutes after drug administration. The experiment was carried out at dosages of 7.5 mg, 15 mg and 22.5 mg.
# [6] = Study 1, all the tested doses (0.5, 1, 1.5 and 2 mg/kg)
# [7] = male Beagle dogs, oral 1.50 mg/kg (freebase equivalent)
smiles,measurement,setting,value
"COc1cc2c(cc1OC)[C@H]1C[C@@H](O)[C@H](CC(C)C)CN1CC2 [(+)-α-dihydrotetrabenazine, (2R,3R,11bR)-3-isobutyl-9,10-dimethoxy-1,3,4,6,7,11b-hexahydro-2H-pyrido[2,1,a]isoquinolin-2-01]",solubility thermodynamic at 7 days,[1],0.127 mg/mL
same,total stereotypic behaviour compared to vehicle-vehicle group,"[2]; Study 1, 0.5 mg/kg plus amphetamine, male CD rats",significantly different
same,total stereotypic behaviour compared to vehicle-amphetamine group,"[2]; Study 1, 0.5 mg/kg, male CD rats",significantly different
same,total stereotypic behaviour compared to vehicle-amphetamine group,"[2]; Study 1, 1 mg/kg, male CD rats",significantly different
same,total stereotypic behaviour compared to vehicle-vehicle group,"[2]; Study 1, 1.5 mg/kg plus amphetamine, male CD rats",significantly different
same,total stereotypic behaviour compared to vehicle-amphetamine group,"[2]; Study 1, 1.5 mg/kg, male CD rats",significantly different
same,total stereotypic behaviour compared to vehicle-amphetamine group,"[2]; Study 1, 2 mg/kg, male CD rats",significantly different
same,locomotor activity compared to vehicle-amphetamine group,[2]; [6],lower locomotor activity
same,stereotypic behaviour compared to vehicle-amphetamine group,[2]; [6],reduced stereotypic behaviour
same,effect suggested by both measured parameters,"[2]; Study 1, locomotor activity and stereotypic behaviour",sedative effect similar to risperidone
same,total stereotypic behaviour compared to vehicle-amphetamine group,"[2]; Study 2, 0.1 mg/kg, male CD rats",significantly different
same,total stereotypic behaviour compared to vehicle-amphetamine group,"[2]; Study 2, 0.25 mg/kg, male CD rats",significantly different
same,total distance travelled compared to vehicle-amphetamine group,"[2]; Study 2, 0.25 mg/kg, male CD rats, listed as (+)-α-DHTBZ",lower locomotor activity
same,stereotypic behaviour compared to vehicle-amphetamine group,"[2]; Study 2, both the tested doses (0.1 and 0.25 mg/kg)",reduced stereotypic behaviour
same,stereotypic behaviour versus vehicle,[3],comparable
same,total movement versus vehicle,[3],comparable
same,Cmax,"[4]; dog, plasma, 1.5 mg/kg, male Beagle dogs, oral 1.50 mg/kg (freebase equivalent)",0.0587 µg/mL
same,mean exposure,[4]; [7],64.26 ng·mL·h
same,time post dose at which Cmax was observed,[4]; [7],0.25 h
same,concentration at 6 h,"[4]; male, Beagle (HsdRcc:DOBE), dog, plasma, po, 1.5 mg/kg, Plasma concentration of (+)-α-dihydrotetrabenazine, Male 2, oral 1.50 mg/kg (freebase equivalent), 6 h, BLQ = <0.10 ng/mL",0.000113 µg/mL
same,concentration at 1 h,"[5]; human, plasma, subject 1 (112 kg), 7.5 mg oral",0.00094 µg/mL
same,concentration at 1 h,"[5]; human, plasma, subject 1 (112 kg), 22.5 mg oral",0.018 µg/mL
same,concentration at 2 h,"[5]; human, plasma, subject 2 (76 kg), 7.5 mg oral",0.014 µg/mL
same,concentration at 0.5 h,"[5]; human, plasma, subject 3 (129 kg), 15 mg oral, 0.5 h",0.0012 µg/mL
same,concentration at 2 h,"[5]; human, plasma, subject 3 (129 kg), 15 mg oral",0.012 µg/mL
same,plasma concentration of (+)-α-dihydrotetrabenazine,"[5]; subject 1 (112 kg), 7.5 mg oral, 0.5 h, BLQ = below level of quantitation",BLQ
